US10711006B2, “Selective Bruton's tyrosine kinase inhibitor and use thereof” (HANGZHOU HERTZ PHARMACEUTICAL CO., LTD., priority 2016, dated 2020)
Each block holds one molecule with its values, some of them ahead of it.

Key:
[1] = Oral pharmacokinetic experiment in SD rats; assay type: in vivo
Description: SD rats were used as experimental animals and were subjected to intragastric administration in a dose of 10 mg/kg and tail-vein intravenous injection in a dose of 2 mg/kg. The tail-vein blood sampling time points in the intragastric administration were 0.17, 0.33, 0.5, 1, 1.5, 2, 4, 6, 8, 12, and 24 hours; the blood sampling time points in the intravenous administration were 0.05, 0.1, 0.17, 0.5, 1, 2, 4, 6, 8, 12, and 24 hours. 0.3 ml of whole blood was taken, and 0.1 ml of plasma after centrifugation was taken and analyzed by LC-MS.

BTK Kinase = BTK Kinase (Homo sapiens (Human), UniProt Q06187); assay: In-vitro Btk kinase inhibitory activity assay; assay type: biochemical
BTK Kinase, sequence (Q06187 whole entry): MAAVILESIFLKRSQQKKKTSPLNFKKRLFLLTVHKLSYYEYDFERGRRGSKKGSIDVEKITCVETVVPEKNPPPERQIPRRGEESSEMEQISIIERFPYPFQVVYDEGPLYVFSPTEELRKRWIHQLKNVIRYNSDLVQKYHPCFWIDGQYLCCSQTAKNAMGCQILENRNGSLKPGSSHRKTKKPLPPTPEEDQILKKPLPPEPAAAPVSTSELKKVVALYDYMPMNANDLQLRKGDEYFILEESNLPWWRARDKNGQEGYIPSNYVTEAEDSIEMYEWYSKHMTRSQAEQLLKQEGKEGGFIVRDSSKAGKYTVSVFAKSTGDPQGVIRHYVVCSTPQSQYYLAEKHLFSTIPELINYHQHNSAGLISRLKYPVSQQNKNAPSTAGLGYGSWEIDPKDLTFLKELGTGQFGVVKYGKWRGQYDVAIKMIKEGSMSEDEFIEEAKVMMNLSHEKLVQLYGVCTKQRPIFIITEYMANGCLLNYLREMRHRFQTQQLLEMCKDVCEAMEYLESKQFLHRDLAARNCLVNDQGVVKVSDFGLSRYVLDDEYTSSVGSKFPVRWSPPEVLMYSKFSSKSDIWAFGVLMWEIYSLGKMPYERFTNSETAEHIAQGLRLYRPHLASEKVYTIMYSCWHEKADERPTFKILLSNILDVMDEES
Description: In-Vitro Btk Kinase Inhibitory Activity Assay for Compounds of the Present Invention:
10 μL of the 50× drug stock solution was added to a 96-well plate and then 90 μL of a 1× Kinase Buffer was added and the 96-well plate was shaken for 10 minutes on a shaker. From each well of the 96-well plate, 5 μL of the drug solution was taken and then transferred to a 384-well plate which was provided with 2 duplicate wells.
Preparation of a 2.5× Kinase Buffer: an enzyme was added to the 1× kinase base buffer.
Prepare a 2.5× oligopeptide solution: FAM-labeled oligopeptide and ATP were added to the 1× kinase base buffer.
10 μL of the 2.5× Kinase Buffer was added to the 384-well plate loaded with 5 μL of the drug solution and incubation was then carried out for 10 minutes at room temperature. 10 μL of the 2.5× oligopeptide solution was added to the 384-well plate and incubation was then carried out for 1 hour at 28° C. The reaction was stopped by adding 25 μL of a stop buffer. The readings were recorded and the inhibition rate of the compound on the enzyme was calculated. The IC50 of BTK kinase was calculated by fitting.

hERG potassium channel = hERG potassium channel (Homo sapiens (Human), UniProt Q12809); assay: hERG potassium channel inhibitory activity, manual patch clamp in CHO cells; assay type: cell-based; details: CHO cells stably expressing hERG, whole-cell patch clamp
hERG potassium channel, sequence (Q12809 whole entry): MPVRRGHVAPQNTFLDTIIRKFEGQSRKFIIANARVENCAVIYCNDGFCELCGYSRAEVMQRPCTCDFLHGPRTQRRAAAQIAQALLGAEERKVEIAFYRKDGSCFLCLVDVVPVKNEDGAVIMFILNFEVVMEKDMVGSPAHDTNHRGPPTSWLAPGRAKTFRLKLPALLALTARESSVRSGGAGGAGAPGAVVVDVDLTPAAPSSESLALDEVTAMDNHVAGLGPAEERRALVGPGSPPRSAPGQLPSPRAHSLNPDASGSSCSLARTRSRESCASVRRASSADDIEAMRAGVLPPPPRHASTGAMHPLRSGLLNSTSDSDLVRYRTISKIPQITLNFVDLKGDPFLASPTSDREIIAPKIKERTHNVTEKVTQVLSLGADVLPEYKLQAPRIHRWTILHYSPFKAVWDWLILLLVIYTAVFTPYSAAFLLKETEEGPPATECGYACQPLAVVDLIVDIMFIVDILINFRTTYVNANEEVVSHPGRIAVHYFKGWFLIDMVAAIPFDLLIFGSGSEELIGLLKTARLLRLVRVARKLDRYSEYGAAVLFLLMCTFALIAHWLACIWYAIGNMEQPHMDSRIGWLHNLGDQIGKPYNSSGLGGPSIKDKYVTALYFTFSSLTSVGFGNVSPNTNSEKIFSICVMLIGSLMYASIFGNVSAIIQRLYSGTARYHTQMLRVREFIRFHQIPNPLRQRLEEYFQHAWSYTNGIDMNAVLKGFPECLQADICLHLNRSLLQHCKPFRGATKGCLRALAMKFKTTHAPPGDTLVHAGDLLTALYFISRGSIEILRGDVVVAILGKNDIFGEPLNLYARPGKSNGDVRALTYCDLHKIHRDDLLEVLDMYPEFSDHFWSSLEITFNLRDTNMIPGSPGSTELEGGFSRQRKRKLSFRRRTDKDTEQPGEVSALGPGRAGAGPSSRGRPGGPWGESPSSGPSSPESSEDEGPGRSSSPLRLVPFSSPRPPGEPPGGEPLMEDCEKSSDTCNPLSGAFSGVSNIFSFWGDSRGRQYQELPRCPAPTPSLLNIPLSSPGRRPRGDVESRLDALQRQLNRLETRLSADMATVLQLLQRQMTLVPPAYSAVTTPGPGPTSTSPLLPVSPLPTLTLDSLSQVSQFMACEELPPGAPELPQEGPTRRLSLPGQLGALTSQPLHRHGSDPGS
Description: The cells used in this experiment were CHO cell lines transfected with HergCdna and stably expressing Herg channels (supplied by Sophion Bioscience, Denmark). The cells were cultured in a medium containing the following components (all from Invitrogen): Ham's F12 medium, 10% (v/v) inactivated fetal bovine serum, 100 μg/ml hygromycin B, 100 μg/ml Geneticin. […] 24 to 48 hours before an electrophysiological experiment, CHO Herg cells were transferred to circular slides placed in the culture dishes and grow with the same culture liquid under the same culture conditions as above. The density of CHO Herg cells on each circular slide was required to reach such a value that most cells were independent and stand alone.
2. Treatment and Dilution of a Compound
Before the test, the compound was first diluted with DMSO at gradient to make stock solutions with concentrations of 10, 3, 1, 0.3 and 0.1 Mm and the stock solutions were then diluted with extracellular fluid to a final Mm test concentration. Except that the DMSO concentration in the 30 Mm compound test solution was 0.3%, the final concentration of DMSO in each of the compound solutions with other concentrations was 0.1%. The test concentration of a positive control Cisapridewas 0.1 Mm. All compound solutions were conventionally sonicated and shaken for 5 to 10 minutes to ensure complete dissolution of the compound.
3. Electrophysiological Recording System and Data Analysis
This experiment uses a manual patch clamp system (HEKA EPC-10 signal amplifier and digital conversion system, purchased from HEKA Electronics, Germany) for the recording of whole cell currents. The circular slides with CHO Herg cells growing on the surfaces were placed in an electrophysiological recording slot under an inverted microscope. The extracellular fluid was used for continuous perfusion in the recording slot (approximately lml per minute). The experimental procedure uses a conventional whole-cell patch clamp current recording technique. Unless otherwise stated, the experiment was carried out at regular room temperature ([…]). The cells were clamped at a voltage of −80 Mv. The cell clamp voltage was depolarized to +20 Mv to activate the Herg potassium channel, and 5 seconds later, it was clamped to −50 Mv to eliminate inactivation and generate tail current. The peak of the tail current was used as the value of the Herg current. After the hERG potassium current recorded in the above step was stabilized under the continuous extracellular fluid perfusion in the recording slot, the drug to be tested can be superimposed to the perfusion until the inhibitory effect of the drug on the hERG current reaches a steady state. Generally, the criterion for determine whether or not the stable state was reached was that the recent three consecutive current recording lines were coincident. After the steady state was reached, extracellular fluid perfusion was carried out for flushing until the hERG current returns to the magnitude before the drug was added. One cell may be used for testing one or more drugs, or multiple concentrations of the same drug, and flushing with extracellular fluid was carried out between tests of different drugs. Cisapride (purchased from Sigma) was used in the experiment as a positive control to ensure that the cells used were of normal quality. The test data was analyzed by data analysis software provided by HEKA Patchmaster, Microsoft Excel and Graphpad Prism.

[2] = system: human lung cancer cell (A549); assay: In-vitro tumor cell proliferation inhibition (CCK-8), A549; details: A549, 72 h, read-out: Tumor cell proliferation inhibitory activity (IC50, μM) A549
[3] = system: human mantle cell lymphoma (MINO); assay: In-vitro tumor cell proliferation inhibition (CCK-8), MINO; details: 72 h, read-out: Tumor cell proliferation inhibitory activity (IC50, μM) MINO
Description: (§1) The in-vitro antitumor activity assay was carried out on the synthesized compound by using different solid tumors and leukemia cell lines:
(§2) Cell lines: human lung cancer cell (A549), human mantle cell lymphoma (MINO), diffuse giant B-cell lymphoma (OCI-LY10), and human diffuse large B lymphoma (TMD-8).
(§3) Preparation method of the drug: the drug was dissolved in DMSO to make a 10 mM stock solution, and then the stock solution was diluted in a certain ratio to obtain 5 different concentrations (test concentration 100×). In-vitro culture of tumor cells:
(§4) The tumor cells A549, MINO, OCI-LY10, and TMD-8 were seeded in a 96-well plate at 4000 cells/200 μL/well and then incubated overnight at 37° C. in a 5% CO2 cell culture incubator. 2 μL of the compound was added to each well to final concentrations of 50 μM, 10 μM, 2 μM, 0.4 μM, and 0.08 μM and then incubated for 72 hours at 37° C. in a 5% CO2 cell incubator, with DMSO (2%) as a control group. […] Wells loaded with the corresponding amount of cell culture fluid the and CCK-8 solution but no cells were considered as blank controls. The absorbance (OD value) was measured at 450 nm using a microplate reader, and the obtained data was used to calculate IC50.

[4] = system: human diffuse large B lymphoma (TMD-8); assay: In-vitro tumor cell proliferation inhibition (CCK-8), TMD-8; details: TMD8, 72 h, read-out: Tumor cell proliferation inhibitory activity (IC50, nM) TMD-8
Description: as §1, §2, §3, §4

[5] = system: diffuse giant B-cell lymphoma (OCI-LY10); assay: In-vitro tumor cell proliferation inhibition (CCK-8), OCI-LY10; details: Homo sapiens, OCI-Ly10, 72 h, read-out: Tumor cell proliferation inhibitory activity (IC50, nM) OCI-LY10
Description: as §1, §2, §3, §4

[6] = oral (intragastric) 10 mg/kg, mean n = 3

SMILES: C=CC(=O)N1CCC[C@@H](n2nc(-c3ccc(Oc4cccc(F)c4F)nc3)c3c(N)ncnc32)C1 [Compound 15h, (R)-1-(3-(4-amino-3-(6-(2,3-difluorophenoxypyridine)-3-yl)-1H-pyrazolo[3,4-d]pyrimidin-1-yl)piperidin-1-yl)prop-2-en-1-one]
- IC50 (BTK Kinase): 3.2 nM

SMILES: C=CC(=O)N1CCC[C@@H](n2nc(-c3ccc(Oc4c(F)cccc4F)nc3)c3c(N)ncnc32)C1 [Compound 15g, (R)-1-(3-(4-amino-3-(6-(2,6-difluorophenoxypyridine)-3-yl)-1H-pyrazolo[3,4-d]pyrimidin-1-yl)piperidin-1-yl)prop-2-en-1-one]
- IC50 (BTK Kinase): 7.8 nM

SMILES: C=CC(=O)N1CCC[C@@H](n2nc(-c3ccc(Oc4ccc(OC)cc4)nc3)c3c(N)ncnc32)C1 [Compound 15j]
- IC50 (BTK Kinase): 32.5 nM
- IC50 (hERG potassium channel): 17500 nM

SMILES: C=CC(=O)N1CCC[C@@H](n2nc(-c3ccc(Oc4ccc(C(F)(F)F)cc4)nc3)c3c(N)ncnc32)C1 [Compound 15k, (R)-1-(3-(4-amino-3-(6-(4-trifluoromethylphenoxypyridine)-3-yl)-1H-pyrazolo[3,4-d]pyrimidin-1-yl)piperidin-1-yl)prop-2-en-1-one]
- IC50 (BTK Kinase): 18.2 nM

SMILES: C=CC(=O)N1CCC[C@@H](n2nc(-c3ccc(Oc4ccc(F)c(F)c4)nc3)c3c(N)ncnc32)C1 [Compound 15f, (R)-1-(3-(4-amino-3-(6-(3,4-difluorophenoxypyridine)-3-yl)-1H-pyrazolo[3,4-d]pyrimidin-1-yl)piperidin-1-yl)prop-2-en-1-one]
- IC50 (BTK Kinase): 25.3 nM

SMILES: C=CC(=O)N1CCC[C@@H](n2nc(-c3ccc(Oc4ccc(Cl)cc4)nc3)c3c(N)ncnc32)C1 [Compound 15e, (R)-1-(3-(4-amino-3-(6-(4-chlorophenoxypyridine)-3-yl)-1H-pyrazolo[3,4-d]pyrimidin-1-yl)piperidin-1-yl)prop-2-en-1-one]
- IC50 (BTK Kinase): 10.5 nM

SMILES: Nc1ncnc2c1c(-c1ccc(Oc3ccccc3)nc1)nn2[C@@H]1CCCN(C(=O)C#CCCO)C1 [Compound 21c, (R)-1-(3-(4-amino-3-(6-phenoxypyridin-3-yl)-1H-pyrazolo[3,4-d]pyrimidin-1-yl)piperidin-1-yl)-5-hydroxypent-2-yn-1-one]
- IC50 (hERG potassium channel): 25200 nM

Second part, led by results:

- oral bioavailability relative to ibrutinib ([1]; oral 10 mg/kg): 3.69 times
SMILES: C=CC(=O)N1CC[C@H](n2nc(-c3ccc(Oc4ccccc4)nc3F)c3c(N)ncnc32)C1 [Compound 24b, (S)-1-(3-(4-amino-3-(2-fluoro-6-phenoxypyridin-3-yl)-1H-pyrazolo[3,4-d]pyrimidin-1-yl)pyrrolidin-1-yl)prop-2-en-1-one]

- IC50 (BTK Kinase): 9.6 nM
SMILES: C=CC(=O)N1CC[C@@H](n2nc(-c3ccc(Oc4ccccc4F)nc3)c3c(N)ncnc32)C1 [Compound 23b, (R)-1-(3-(4-amino-3-(6-(2-fluorophenoxy)pyridin-3-yl)-1H-pyrazolo[3,4-d]pyrimidin-1-yl)pyrrolidin-1-yl)prop-2-en-1-one]

- IC50 (BTK Kinase): 9.7 nM
SMILES: C=CC(=O)N1CC[C@@H](n2nc(-c3ccc(Oc4c(F)cccc4F)nc3)c3c(N)ncnc32)C1 [Compound 23c, (R)-1-(3-(4-amino-3-(6-(2,6-difluorophenoxy)pyridin-3-yl)-1H-pyrazolo[3,4-d]pyrimidin-1-yl)pyrrolidin-1-yl)prop-2-en-1-one]

- IC50 (BTK Kinase): 8.9 nM
SMILES: C=CC(=O)N1CCC[C@@H](n2nc(-c3cnc(Oc4ccccc4)cc3F)c3c(N)ncnc32)C1 [Compound 16a, (R)-1-(3-(4-amino-3-(4-fluoro-6-phenoxypyridin-3-yl)-1H-pyrazolo[3,4-d]pyrimidin-1-yl)piperidin-1-yl)prop-2-en-1-one]
- IC50 (hERG potassium channel): 6900 nM

- IC50 (BTK Kinase): 7.4 nM
SMILES: C=CC(=O)N1CC[C@@H](n2nc(-c3ccc(Oc4cccc(F)c4F)nc3)c3c(N)ncnc32)C1 [Compound 23d, (R)-1-(3-(4-amino-3-(6-(2,3-difluorophenoxy)pyridin-3-yl)-1H-pyrazolo[3,4-d]pyrimidin-1-yl)pyrrolidin-1-yl)prop-2-en-1-one]

- IC50 (BTK Kinase): 1.2 nM
- IC50 [2]: 1.02 µM
- IC50 [3]: 7.65 µM
- IC50 [4]: 3.8 nM
- IC50 [5]: 2.04 nM
SMILES: C=CC(=O)N1CCC[C@@H](n2nc(-c3ccc(Oc4cccc(F)c4F)nc3F)c3c(N)ncnc32)C1 [Compound 17i, (R)-1-(3-(4-amino-3-(6-(2,3-difluorophenoxy)-2-fluoropyridin-3-yl)-1H-pyrazolo[3,4-d]pyrimidin-1-yl)piperidin-1-yl)prop-2-en-1-one]

- IC50 (BTK Kinase): 10.3 nM
- IC50 [2]: 19.5 µM
- IC50 [3]: 20.3 µM
- IC50 [4]: 8.14 nM
- IC50 [5]: 32.1 nM
SMILES: C=CC(=O)N1CCC[C@@H](n2nc(-c3cnc(Oc4ccccc4)nc3)c3c(N)ncnc32)C1 [Compound 18, (R)-1-(3-(4-amino-3-(2-phenoxypyrimidin-5-yl)-1H-pyrazolo[3,4-d]pyrimidin-1-yl)piperidin-1-yl)prop-2-en-1-one]

- IC50 (BTK Kinase): 8.6 nM
SMILES: C=CC(=O)N1CCC[C@@H](n2nc(-c3cnc(Oc4ccccc4)c(F)c3)c3c(N)ncnc32)C1 [Compound 16b, (R)-1-(3-(4-amino-3-(5-fluoro-6-phenoxypyridin-3-yl)-1H-pyrazolo[3,4-d]pyrimidin-1-yl)piperidin-1-yl)prop-2-en-1-one]

- IC50 (BTK Kinase): 6.6 nM
SMILES: C=CC(=O)N1CCC[C@@H](n2nc(-c3cnc(Oc4ccccc4)cc3C)c3c(N)ncnc32)C1 [Compound 16c, (R)-1-(3-(4-amino-3-(4-methyl-6-phenoxypyridin-3-yl)-1H-pyrazolo[3,4-d]pyrimidin-1-yl)piperidin-1-yl)prop-2-en-1-one]

- IC50 (BTK Kinase): 7.2 nM
SMILES: C=CC(=O)N1CCC[C@@H](n2nc(-c3ccc(Oc4ccccc4)nc3C)c3c(N)ncnc32)C1 [Compound 16d, (R)-1-(3-(4-amino-3-(2-methyl-6-phenoxypyridin-3-yl)-1H-pyrazolo[3,4-d]pyrimidin-1-yl)piperidin-1-yl)prop-2-en-1-one]

- AUC0-C(ng/h/mL) [1, 6]: 550 ng·h/mL
- AUC0-t (ng/h/mL) [1, 6]: 544 ng·h/mL
- bioavailability ([1]; rat, plasma, oral 10 mg/kg vs intravenous 2 mg/kg, mean n = 3): 12.5%
- Cmax ([1]; rat, plasma, oral (intragastric) 10 mg/kg, mean n = 3): 254 ng/mL
SMILES: C=CC(=O)N1CCC[C@@H](n2nc(-c3ccc(Oc4ccccc4)cc3)c3c(N)ncnc32)C1 [Ibrutinib, reference compound]
